The record followed here is ChEMBL document CHEMBL4219249, “Discovery of d-amino acid oxidase inhibitors based on virtual screening against the lid-open enzyme conformation” (Bioorg Med Chem Lett, 2018).

The target of assay [1] is T1, D-amino-acid oxidase (Homo sapiens, UniProt P14920). Nature of the assay: Inhibition of human DAAO at 20 uM using D-kynurenine as substrate relative to control.
Target sequence in this assay (P14920 whole entry, looked up): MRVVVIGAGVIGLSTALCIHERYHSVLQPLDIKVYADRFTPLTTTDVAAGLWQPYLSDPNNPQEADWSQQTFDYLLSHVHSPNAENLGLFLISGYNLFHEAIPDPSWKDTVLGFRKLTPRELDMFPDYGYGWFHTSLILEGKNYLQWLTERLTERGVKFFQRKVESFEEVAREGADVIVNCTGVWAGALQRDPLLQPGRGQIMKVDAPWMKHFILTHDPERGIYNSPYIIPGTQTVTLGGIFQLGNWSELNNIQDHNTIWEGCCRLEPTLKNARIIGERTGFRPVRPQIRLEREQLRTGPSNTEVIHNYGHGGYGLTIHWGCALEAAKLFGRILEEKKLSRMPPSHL
Assay [2] deals with T1, D-amino-acid oxidase. Description: Inhibition of human DAAO using D-kynurenine as substrate.
Target sequence in this assay (P14920 whole entry): as the sequence (P14920 whole entry, looked up) above

In general, inhibition refers to the change of the read-out against control, counted positive when it falls. Turning to `CN(CC(=O)O)C(=O)c1cc(N(C)C(=O)c2cc(Br)c(Br)[nH]2)c[nH]1`, the inhibition against D-amino-acid oxidase [1] is 0%.

For orientation: IC50 means the concentration that gives 50% inhibition. As to `O=C(O)CNC(=O)c1cc(NC(=O)c2cc(Br)c(Br)[nH]2)c[nH]1`, at D-amino-acid oxidase [1], the inhibition turned out to be 100%. The compound further displayed an IC50 against D-amino-acid oxidase [2] of 0.39 µM.

At D-amino-acid oxidase [1], `Cn1cc(NC(=O)c2cc(Br)c(Br)[nH]2)cc1C(=O)NCC(=O)O` yielded an inhibition of 32%. On D-amino-acid oxidase [1], `O=C(O)CNC(=O)c1cc(NC(=O)c2cccnc2)c[nH]1` had an inhibition of 45%. Compound `O=C(O)CNC(=O)c1cc(NC(=O)c2cc(Br)c[nH]2)c[nH]1` returned an inhibition at D-amino-acid oxidase [1] of 100%. Moreover, the IC50 against D-amino-acid oxidase [2] amounted to 6.7 µM.

Compound `O=C(O)CNC(=O)c1cc(NC(=O)c2ccccn2)c[nH]1` registered an inhibition at D-amino-acid oxidase [1] of 18%.

On to `O=C(O)CNC(=O)c1cc([N+](=O)[O-])c[nH]1`, for which, on D-amino-acid oxidase [1], the inhibition amounted to 35%. In the case of `CN(C(=O)c1cc(Br)c(Br)[nH]1)c1c[nH]c(C(=O)NCC(=O)O)c1`, the inhibition against D-amino-acid oxidase [1] is 0%.

Take `CN(CC(=O)O)C(=O)c1cc(NC(=O)c2cc(Br)c(Br)[nH]2)c[nH]1`: the inhibition on D-amino-acid oxidase [1] came out at 100%. Besides, on D-amino-acid oxidase [2], the IC50 amounted to 0.49 µM. Consider `O=C(O)CNC(=O)c1cc(NC(=O)c2cc3ccccc3[nH]2)c[nH]1`, for which the inhibition on D-amino-acid oxidase [1] was found to be 8%.

`O=C(O)CNC(=O)c1cc(NC(=O)c2cc(Cl)c(Cl)[nH]2)c[nH]1` returned an inhibition against D-amino-acid oxidase [1] of 100%. 5.2 µM corresponded to half-maximal inhibition on D-amino-acid oxidase [2] (IC50).

`O=C(O)CNC(=O)c1cc(NC(=O)c2ccc([N+](=O)[O-])[nH]2)c[nH]1` registered an inhibition at D-amino-acid oxidase [1] of 33%. On to `Cc1[nH]c(C(=O)Nc2c[nH]c(C(=O)NCC(=O)O)c2)c(Cl)c1Cl`, for which the inhibition against D-amino-acid oxidase [1] was 100%. The compound also had an IC50 at D-amino-acid oxidase [2] of 8.8 µM. `CC(=O)Nc1c[nH]c(C(=O)NCC(=O)O)c1` showed an inhibition against D-amino-acid oxidase [1] of 39%.
